# ChEMBL document CHEMBL1126347, “Competitive NMDA antagonist that base their activity on a unique conformational effect” (Bioorg Med Chem Lett, 1992)
# Target: Glutamate NMDA receptor
# Test: The compound was tested for NMDA antagonist activity against [3H]-CGS- 19755 binding in rat cortex preparation
row,Structure (SMILES),Ki
1,O=C(O)[C@@H]1NCCC[C@@H]1C(O)CP(=O)(O)O (stereo not given in full),106 nM
2,"O=C(O)[C@@H]1C[C@H](CP(=O)(O)O)CCN1 (single isomer, unassigned) [SELFOTEL]",40 nM
3,O=C(CP(=O)(O)O)[C@H]1CCCN[C@H]1C(=O)O (stereo in doubt; 1),69 nM
4,O=C(CP(=O)(O)O)[C@H]1CCCN[C@H]1C(=O)O (stereo in doubt; 14),64 nM
5,O=C(CP(=O)(O)O)[C@H]1CCCN[C@H]1C(=O)O (stereo in doubt; 15),> 1000 nM
